In patent publication US5652232A, “Benzolactam derivatives” (Shionogi & Co., Ltd., priority 1993, dated 1997) one finds EC50 and CC50 data, which are given here for 16 molecules.

Converted amounts (≈) assume the structure as drawn. Like-named read-outs stand apart in the source and are kept apart here.

Data set [1] has as its system HIV (HIV-1IIIB strain). The data set is described as follows: Antiviral activity: inhibition of HIV cytotoxicity in MT-4 cells (MTT). In kind it is cell-based. As to conditions: Human immunodeficiency virus 1, MT4, 120 h, read-out: EC50: concentration of the compound that achieved 50% inhibition of cytotoxicity by the virus. On the procedure: (§1) (A) A human T-cell strain MOLT-4 clone 8, persistently infected with HIV (HIV-1IIIB strain), was cultured in RPMI-1640 medium supplemented with 10% fetal bovine serum. The culture supernatant was then filtered and stored at -80° C. after a measurement of viral titer. Each of test compounds was diluted with the above culture medium so as to be a predetermined concentration, and 50 μl of the solution was added to each of wells of a 96-well microtiter plate. Then, after the addition of each 100 μl of MT-4 cell suspension (3.5×10^4 cells) to the well, the above-prepared HIV-containing supernatant was diluted with the above medium and 50μl of the dilution (60 plaque forming units) was added to each well.
(§2) (B) After incubation of the 96-well microtiter plate in a CO2 -incubator at 37° C. for 5 days, 30 μl of MTT [3-(4,5-dimethylthiazole-2-yl)-2,5-diphenyltetrazorium bromide, 5 mg/ml, PBS] was added to each well and incubation was continued for 1 hour.
(§3) Cells having survived reduced MTT to precipitate formazan. 150 μl of culture supernatant was removed from each well and 150 μl of a solubilizing solution (10% Triton X-100 and isopropanol supplemented with 0.4% (V/V) HCl) was added to each well and the plate was shaken by using a plate mixer to dissolve the formazan. The dissolved formazan was measured by O.D. at 540 nm and the results were compared with referenced control. EC50 (μg/ml) was defined as a concentration of the compound that achieved 50% inhibition of cytotoxicity by the virus. DMSO was used as a solvent and the tested concentrations were 0.0001-10 μg/ml.

The nature of data set [2]: Cytotoxicity against MT-4 cells (MTT). In kind it is cell-based. The note with it: human. On the procedure:
as §1, §2, §3
Cytotoxicities of the test compounds against the MT-4 cells were measured in the same manner as step (A) of the above-described antiviral activity test, provided that 50 μl of the culture medium was added to each well instead of the HIV-containing supernatant (virus solution), which was followed by the same treatment as step (B). CC50 (μg/ml) was defined as a concentration of test compound inducing 50% cytotoxicity.

Setting [3] is: MT-4 cells, no virus, 5 days at 37° C., MTT, read-out: CC50: concentration of test compound inducing 50% cytotoxicity.

Consider `CCCCCCCCCCc1ccc2c(c1)N(C)[C@@H](C(C)C)C(=O)N[C@H](CO)CC2` (relative stereo) [BL-V9-310], for which the EC50 in data set [1] lay within 2.5 to 5 µg/mL (≈ 6 to 12 µM). For the same molecule, the CC50 at 120 h in data set [2] (setting [3]) came out at 10 µg/mL (≈ 24 µM).

Turning to `CC(C)[C@H]1C(=O)N[C@H](CO)CCCc2ccccc2N1C` (relative stereo) [BL-V10], the EC50 in data set [1] was greater than 10 µg/mL. In data set [2] (mt-4 cells), this molecule showed a CC50 at 120 h greater than 10 µg/mL.

`CC(C)[C@H]1C(=O)N[C@@H](CO)CCCc2ccccc2N1C` (relative stereo) [epi-BL-V10]: the EC50 in data set [1] is greater than 10 µg/mL. The molecule also had a CC50 at 120 h in data set [2] (mt-4 cells) greater than 10 µg/mL.

Consider `CCCCCCCCCCc1ccc2c(c1)N(C)[C@@H](C(C)C)C(=O)N[C@@H](CO)C2` (relative stereo) [(±)-epi-BL-V8-310], for which, in data set [1], the EC50 came to 0.13 µg/mL (≈ 0.323 µM). Further, the CC50 at 120 h in data set [2] (setting [3]) is 1 µg/mL (≈ 2.48 µM).

On to `CCCCCCCCCCc1ccc2c(c1)N(C)[C@@H](C(C)C)C(=O)N[C@@H](CO)C2` [(-)-epi-BL-V8-310], for which the EC50 in data set [1] was found to be 0.16 µg/mL (≈ 0.397 µM). The CC50 at 120 h in data set [2] (setting [3]) was in the range of 2.5 to 5 µg/mL (≈ 6.21 to 12.4 µM).

For `CC(C)[C@@H]1C(=O)N[C@H](CO)Cc2cc3c(cc2N1C)C(C)(C)CCC3(C)C` (relative stereo) [epi-BL-V8-23T], the CC50 at 120 h in data set [2] (setting [3]) lay within 1 to 10 µg/mL (≈ 2.68 to 26.8 µM).

For the molecule `CC(C)[C@H]1C(=O)N[C@H](CO)CCc2ccccc2N1C` (relative stereo) [BL-V9], the EC50 in data set [1] was greater than 10 µg/mL. Further, the CC50 at 120 h in data set [2] (setting [3]) was greater than 10 µg/mL.

For the molecule `CC(C)[C@H]1C(=O)N[C@H](CO)Cc2cc3c(cc2N1C)C(C)(C)CCC3(C)C` (relative stereo) [BL-V8-23T], the CC50 at 120 h in data set [2] (setting [3]) lay within 1 to 10 µg/mL (≈ 2.68 to 26.8 µM).

As to `CCCCCCCCCCc1ccc2c(c1)N(C)[C@@H](C(C)C)C(=O)N[C@H](CO)C2` [(-)-BL-V8-310], the EC50 in data set [1] was 0.003 µg/mL (≈ 0.00745 µM). Also, the CC50 at 120 h in data set [2] (setting [3]) lay within 5 to 10 µg/mL (≈ 12.4 to 24.8 µM).

Turning to `CC(C)[C@H]1C(=O)N[C@H](CO)Cc2ccccc2N1C` (relative stereo) [BL-V8], the EC50 in data set [1] was 0.1 to 1 µg/mL (≈ 0.381 to 3.81 µM). For the same molecule, the CC50 at 120 h in data set [2] (setting [3]) is 10 µg/mL (≈ 38.1 µM).

As for `CCCCCCCCCCc1ccc2c(c1)N(C)[C@H](C(C)C)C(=O)N[C@H](CO)C2` [(+)-epi-BL-V8-310], in data set [1], the EC50 worked out at 0.1 µg/mL (≈ 0.248 µM). Moreover, the CC50 at 120 h in data set [2] (setting [3]) was 5 to 10 µg/mL (≈ 12.4 to 24.8 µM).

With `CC(C)[C@H]1C(=O)N[C@@H](CO)CCc2ccccc2N1C` (relative stereo) [epi-BL-V9], the EC50 in data set [1] was greater than 10 µg/mL. The CC50 at 120 h in data set [2] (setting [3]) is greater than 10 µg/mL.

With `CCCCCCCCCCc1ccc2c(c1)N(C)[C@H](C(C)C)C(=O)N[C@H](CO)CC2` (relative stereo) [epi-BL-V9-310], the EC50 in data set [1] came out at 0.3 µg/mL (≈ 0.72 µM). Further, in data set [2] (setting [3]), the CC50 at 120 h lay in the range of 5 to 10 µg/mL (≈ 12 to 24 µM).

`CCCCCCCCCCc1ccc2c(c1)N(C)[C@H](C(C)C)C(=O)N[C@@H](CO)C2` [(+)-BL-V8-310]: in data set [1], the EC50 fell in the range of 0.05 to 0.1 µg/mL (≈ 0.124 to 0.248 µM). The CC50 at 120 h in data set [2] (setting [3]) was in the range of 5 to 10 µg/mL (≈ 12.4 to 24.8 µM).

For the molecule `CC(C)[C@H]1C(=O)N[C@@H](CO)Cc2ccccc2N1C` (relative stereo) [epi-BL-V8], the EC50 in data set [1] lay within 2.5 to 5 µg/mL (≈ 9.53 to 19.1 µM). Also, in data set [2] (setting [3]), the CC50 at 120 h is 10 µg/mL (≈ 38.1 µM).

As for `CCCCCCCCCCc1ccc2c(c1)N(C)[C@@H](C(C)C)C(=O)N[C@H](CO)C2` (relative stereo) [(±)-BL-V8-310], the EC50 in data set [1] lay in the range of 0.001 to 0.01 µg/mL (≈ 0.00248 to 0.0248 µM). Further, the CC50 at 120 h in data set [2] (setting [3]) is 1 µg/mL (≈ 2.48 µM).
